Biological target: T1, P2X7 receptor (Homo sapiens, UniProt Q99572)
T1 construct: stably expressing the full length P2X7 receptor; expressed in transfected cells
T1 sequence (Q99572 1-595): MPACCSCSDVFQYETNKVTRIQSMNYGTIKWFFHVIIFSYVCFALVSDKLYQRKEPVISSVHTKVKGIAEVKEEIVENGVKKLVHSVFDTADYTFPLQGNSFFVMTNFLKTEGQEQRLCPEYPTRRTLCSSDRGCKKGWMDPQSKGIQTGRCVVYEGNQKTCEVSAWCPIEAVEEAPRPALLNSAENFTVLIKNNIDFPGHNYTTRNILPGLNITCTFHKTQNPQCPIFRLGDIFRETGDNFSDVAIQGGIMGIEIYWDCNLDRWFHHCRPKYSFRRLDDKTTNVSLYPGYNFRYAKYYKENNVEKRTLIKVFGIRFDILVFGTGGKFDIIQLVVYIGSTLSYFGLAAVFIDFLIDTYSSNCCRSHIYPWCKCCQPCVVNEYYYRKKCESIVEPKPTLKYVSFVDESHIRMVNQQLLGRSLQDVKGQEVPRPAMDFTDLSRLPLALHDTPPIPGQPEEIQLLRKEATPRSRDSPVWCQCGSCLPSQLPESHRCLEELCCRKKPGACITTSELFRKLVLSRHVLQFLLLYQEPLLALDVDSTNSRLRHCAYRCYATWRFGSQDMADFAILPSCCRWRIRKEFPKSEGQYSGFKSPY
Test: Ca++ flux assay (FLIPR) in P2X7-HEK-293 cell line stably expressing the full length P2X7 receptor, Bz-ATP activation
Assay type: cell-based
Settings: P2X7-HEK-293 cells; agonist Bz-ATP; fluorescence as total area over 90 seconds; read-out: P2X7 Ca Flux hu IC50
Method in brief: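 HEK-293 cells stably expressing full-length P2X7 were loaded with Ca++-sensitive dye for 1 h, with compound added during loading. Cells were stimulated with Bz-ATP on FLIPR. Fluorescence was integrated as total area over 90 s, and IC50 was taken as 50% inhibition of the maximal Ca++ response.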

SMILES: Cc1c(-n2ccn3c(S(=O)(=O)Cc4ccccc4C(C)(C)C)nnc3c2=O)cccc1C(F)(F)F [Compound 129, 3-(2-tert-butylbenzylsulfonyl)-7-(2-methyl-3-(trifluoromethyl)phenyl)-[1,2,4]triazolo[4,3-a]pyrazin-8(7H)-one]
- IC50: 17 nM
